# Laboratory results reported in US20070276032A1, “Use of 8-Prenylnaringenin for Hormone Replacement Therapy” (priority 2003, published 2007).
# Legend:
# [1] = Body weight, 2S(−) 8-PN in ovariectomized rats (Example 3); assay type: in vivo, Sprague-Dawley rats; settings: OVX rats, s.c. once a day, 7 times a week, 4 weeks
# Excerpt: (§1) A total of 30 female 13-14-week-old Sprague-Dawley rats were used in the study. The animals were randomized into 5 groups, with 6 rats/group. Group 1 was sham-operated (SHAM) and groups 2-5 were ovariectomized (OVX).
# The mean body weight of the animals was 271 g (SD 9, SE 2) before operation. Treatments with the vehicle or test substance started on the day following operation. The animals in the SHAM group received the vehicle, 30% hydroxypropyl-β-cyclodextrin s.c., and in the OVX groups either the vehicle or 2S(−) 8-PN at nominal doses of 0.67 mg/kg/d, 1.77 mg/kg/d or 18 mg/kg/d s.c. Treatments continued for 4 weeks; the dosing frequency was seven times a week. The animals were sacrificed one day after the last dosing. At the end of the study, left tibiae were excised for ex vivo BMD measurement (pQCT) at proximal tibia and uteri were excised for the determination of absolute and relative weights. In addition, samples for the determination of 2S(−)8-Prenylnaringenin concentration were taken from all dosing solutions on the day when they were prepared and on the last day of use. The data of body weights, relative uterine weights and BMD were analyzed with one-way analysis of variance.
# ovariectomized rats [2] = assay: Uterus histology, luminal epithelium cell height in ovariectomized rats (Example 3); assay type: in vivo, Sprague-Dawley rats; settings: ovariectomized rat; at 1.77 mg/kg and 18 mg/kg
# Method: A post-study histological examination was performed. The formalin fixed uteri were embedded in paraffin, cut into 5 μm transverse sections and were stained with haematoxylin eosin. The sections were then evaluated quantitatively for luminal epithelium cell height.
# ERE-Luc = assay: Estrogenic activity in the estrogen reporter mouse ERE-Luc model, luciferase activity in organs (Example 5); assay type: in vivo, mice
# Method: In order to avoid experimental noise male animals were used.
# Fourtyfive heterozygous male ERE-Luc mice of two months of age were fed with soy-free diet for two weeks before assigning them to each experimental group then all the mice were injected intraperitoneally (i.p.) with 250 μl of an oily solution containing the following compounds: • 1. Experimental group 1: vehicle • 2. Experimental group 2: 17β-estradiol at 1.5 μg/kg • 3. Experimental group 3: 2S(−)-8-PN at 30 mg/kg • 4. […] Experimental group 5: genistein at 30 mg/kg.
# The treatment was carried out in experimental groups of three mice each and repeated three times (therefore numbers reflect the average of […] determinations on a total of 9 animals).
# Six hours after the injection, mice were sacrificed by cervical dislocation and organs were dissected and frozen on dry ice. The following organs were analyzed for lucifererase activity by enzymatic assay: prostate, liver, bone, brain.
# Data represent means ±standard deviation of N=9 animals per group.
# Analysis of variance (ANOVA) for overall comparison was followed by Tukey test for paired comparisons. All statistical procedures were carried out with Systat and SAS (*P<0.05; **P<0.01).
# [3] = Body weight, 8-PN racemic, 2S(−) 8-PN and estradiol hemihydrate in ovariectomized rats (Example 4); assay type: in vivo, Sprague-Dawley rats; settings: OVX rats; s.c. once a day, 28 days; 20 mg/kg/d in HP-β-CD
# Method: The aim of the study was to directly compare the effects of Prenylnaringenin (racemate) and 2S(−) 8-Prenylnaringenin to the effects of estradiol hemihydrate on bone mineral density and uterine weight on 3-month-old ovariectomized rats using identical formulations. In addition, the effects of estradiolhemihydrate in two vehicles (oily, aqueous) were examined for influence of formulations. The substances were administered subcutaneously(s.c.) seven days a week beginning the day after ovariectomy. At the end of the study, uterine weight and bone mineral density (BMD) of tibia were measured.
# Forty-one female Sprague-Dawley rats, 12-14 weeks of age were randomized into six groups, 6-8 animals in each. Five groups were ovariectomized (OVX) and one group was sham-operated (SHAM). Treatments started on the day following operation and continued for 28 days. The animals were treated s.c. once a day seven times a week as follows. Group 1 (SHAM vehicle group) and group 2 (OVX vehicle group) were given the vehicle 30% hydroxypropyl-β-cyclodextrin (HP-β-CD). Groups 3 and 4 were administered 4 μg/kg/d of estradiol hemihydrate in vehicle benzyl benzoate/ricinus oil (B/R) and in vehicle HP-β-CD, respectively. Groups 5 and 6 were given 20 mg/kg/d of 2S(−)8-Prenylnaringenin and racemic 8-Prenylnaringenin, respectively, both in vehicle HP-β-CD. At the end of the study, left tibiae were excised for the ex vivo BMD […] were taken from all dosing solutions on the first and last day of use.
# Vehicle 1 (used in the groups 1 and 2): 30% hydroxypropyl-β-cyclodextrin and 0.3% NaCl (w/v), 5% ethanol (v/v) in Aqua sterilisata, pH 7.4.
# Vehicle 2 (used when preparing dosing solutions of the groups 4, 5 and 6): 30% hydroxypropyl-β-cyclodextrin and 0.3% NaCl (w/v) in Aqua sterilisata, pH 7.4.
# Vehicle 3 (used when preparing a dosing solution of the group 3): benzyl benzoate/ricinus oil (B/R) 1+4, v/v.
# ovariectomized rats [4] = assay: Ex vivo BMD (pQCT) of proximal tibia, 2S(−) 8-PN in ovariectomized rats (Example 3); design: species or system Sprague-Dawley rats; settings: OVX rats; for Total BMD, MEAN / Total BMD, MEDIAN / Trabecular BMD, MEAN / Trabecular BMD, MEDIAN: left proximal tibia ex vivo, s.c. 4 weeks
# Method: The aim of the study was to examine bone and uterine effects of a 4-week treatment with 2S(−) 8-Prenylnaringenin (8-PN) in 3-month-old ovariectomized rats. […] At the end of the study, uterine weight and ex vivo bone mineral density (BMD) of tibia were measured.
# as §1
# Treatments with the vehicle or test substance started on the day following operation. […] The animals were sacrificed one day after the last dosing. At the end of the study, left tibiae were excised for ex vivo BMD measurement (pQCT) at proximal tibia and uteri were excised for the determination of absolute and relative weights. In addition, samples for the determination of 2S(−)8-Prenylnaringenin concentration were taken from all dosing solutions on the day when they were prepared and on the last day of use. The data of body weights, relative uterine weights and BMD were analyzed with one-way analysis of variance.
# Bone mineral density measurement was carried out by pQCT (XCT-960A, Stratec, Germany). The bone specimens were thawed before measurement. Six 1 mm-thick sections of the proximal tibia (2 mm below the epiphyseal growth plate) were scanned at 0.5 mm intervals using a voxel size of 0.148 mm. Total and trabecular BMD (mg/cm^3) were measured. After bone densitometry, the specimens were wrapped back to saline saturated gauzes and stored at −20° C.
# [5] = ERE-Luc mice, at the dosages used
smiles,measurement,setting,value
"CC(C)=CCc1c(O)cc(O)c2c1O[C@H](c1ccc(O)cc1)CC2=O [2S(−)8-PN, 2S(−) 8-Prenylnaringenin]",Body weight at the end (bw4b),[1]; 0.67 mg/kg/d,323 (11) g
same,The change in Body weight (bw4b-bw0),[1]; 0.67 mg/kg/d,53 (7) g
same,Body weight at the end (bw4b),[1]; 1.77 mg/kg/d,305 (7) g
same,The change in Body weight (bw4b-bw0),[1]; 1.77 mg/kg/d,35 (5) g
same,Body weight at the end (bw4b),[1]; 18 mg/kg/d,304 (5) g
same,The change in Body weight (bw4b-bw0),[1]; 18 mg/kg/d,33 (4) g
same,luminal epithelial cell height,ovariectomized rats [2],weak stimulation of luminal epithelial cell height
same,agonist profile in bone and prostate compared with the other compounds,ERE-Luc; [5],much stronger agonist profile in bone and prostate when compared to the other compounds
same,estrogenic activity in liver compared with the other compounds,ERE-Luc; [5],almost identical to that of the other compounds
same,"Luciferase activity, Bone","ERE-Luc; male ERE-Luc mice, i.p. 30 mg/kg, six hours after the injection, controls 2.8",5.5 ** arbitrary units
same,"Luciferase activity, Brain","ERE-Luc; male ERE-Luc mice, i.p. 30 mg/kg, six hours after the injection, controls 6.5",8.0 arbitrary units
same,"Luciferase activity, Liver","ERE-Luc; male ERE-Luc mice, i.p. 30 mg/kg, six hours after the injection, controls 7.6",12.5 ** arbitrary units
same,Body weight at The end (bw4b),[3],289(6) g
same,The change in Body weight (bw4b-bw0),[3],24(2) g
same,effect on OVX-induced decreases in BMD at the highest dose,"ovariectomized rats [4]; 18 mg/kg/d s.c., 4 weeks",completely inhibited OVX-induced effects
same,effect on OVX-induced decreases in total and trabecular BMD,"ovariectomized rats [4]; dose range 0.67-18 mg/kg/d s.c., 4 weeks",prevented the OVX-induced decreases in both total and trabecular BMD at the proximal tibial metaphysis dose dependently
same,"Total BMD, MEAN",ovariectomized rats [4]; 0.67 mg/kg/d,561.1 mg/mL
same,"Total BMD, MEDIAN",ovariectomized rats [4]; 0.67 mg/kg/d,569.2 mg/mL
same,"Trabecular BMD, MEAN",ovariectomized rats [4]; 0.67 mg/kg/d,319.1 mg/mL
same,"Trabecular BMD, MEDIAN",ovariectomized rats [4]; 0.67 mg/kg/d,318.7 mg/mL
same,"Total BMD, MEAN",ovariectomized rats [4]; 1.77 mg/kg/d,581.5 mg/mL
same,"Total BMD, MEDIAN",ovariectomized rats [4]; 1.77 mg/kg/d,568.1 mg/mL
same,"Trabecular BMD, MEAN",ovariectomized rats [4]; 1.77 mg/kg/d,330.9 mg/mL
same,"Trabecular BMD, MEDIAN",ovariectomized rats [4]; 1.77 mg/kg/d,329.4 mg/mL
same,"Total BMD, MEAN",ovariectomized rats [4]; 18 mg/kg/d,636.5 mg/mL
same,"Total BMD, MEDIAN",ovariectomized rats [4]; 18 mg/kg/d,635.4 mg/mL
same,"Trabecular BMD, MEAN",ovariectomized rats [4]; 18 mg/kg/d,411.8 mg/mL
same,"Trabecular BMD, MEDIAN",ovariectomized rats [4]; 18 mg/kg/d,396.6 mg/mL
